PubChem BioAssay AID2061108 (Research group of Professor Matthew Todd, School of …, 2025)
The source made the active and inactive calls. The rule behind the calls is not given here.

Legend:
Experiment in all cases: antibacterial and antifungal growth inhibition panel, profiling panel, Idler compounds, first plate, PMBN-permeabilized strains (AID 2061108)
Set-up in all cases: haemolysis: dose or concentration left out as unconfirmed
[1] = tested on: A. baumannii ATCC 17978 + PMBN growth inhibition, 100 uM; details: A. baumannii plus PMBN growth inhibition, 100 µM; stronger effect = higher value
[2] = tested on: A. baumannii ATCC 17978 growth inhibition, 100 uM; details: S. aureus ATCC 9144 growth inhibition; measured here: A. baumannii ATCC 17978; at 100 µM; stronger effect = higher value
[3] = tested on: C. albicans NCPF 3281 growth inhibition, 100 uM; details: S. aureus ATCC 9144 growth inhibition; measured here: C. albicans NCPF 3281; at 100 µM; stronger effect = higher value
[4] = tested on: E. coli NCTC 12923 + PMBN growth inhibition, 100 uM; details: S. aureus ATCC 9144 growth inhibition; measured here: E. coli plus PMBN; at 100 µM; stronger effect = higher value
[5] = tested on: E. coli NCTC 12923 growth inhibition, 100 uM; details: E. coli NCTC 12923 growth inhibition, 100 µM; stronger effect = higher value
[6] = tested on: M. abscessus growth inhibition, 10 uM; details: S. aureus ATCC 9144 growth inhibition; measured here: M. abscessus; at 10 µM
[7] = tested on: M. avium growth inhibition, 10 uM; details: M. avium growth inhibition, 10 µM
[8] = tested on: S. aureus ATCC 9144 growth inhibition, 100 uM; details: S. aureus ATCC 9144 growth inhibition; at 100 µM; stronger effect = higher value
[9] = tested on: red blood cell haemolysis; details: stronger effect = higher value; dose or concentration not given here

SMILES: O=C(Cc1ccc(C(F)(F)F)nc1)N1Cc2cccnc2C1
- inhibition [1]: 22%
- inhibition [2]: 0.241%
- inhibition [3]: -94.2%
- inhibition [4]: -4.27%
- inhibition [5]: -5.95%
- inhibition [6]: -0.0961%
- inhibition [7]: 0.169%
- inhibition [8]: 6.84% (inactive)
- haemolysis [9]: 4.32%

SMILES: O=c1[nH]c(=O)c2cc(S(=O)(=O)Nc3cc(F)c(N4CCN(c5ccccn5)CC4)c(F)c3)ccc2[nH]1
- inhibition [1]: 24%
- inhibition [2]: 4.58%
- inhibition [3]: -115%
- inhibition [4]: 9.51%
- inhibition [5]: 0.946%
- inhibition [6]: -0.0939%
- inhibition [7]: 1.7%
- inhibition [8]: 10.2% (inactive)
- haemolysis [9]: 0.458%

SMILES: Oc1ccc(CN2CCN(c3ccccc3F)CC2)c2cccnc12
- inhibition [1]: 18.1%
- inhibition [2]: 14.6%
- inhibition [3]: 95.2%
- inhibition [4]: 6.46%
- inhibition [5]: -2.43%
- inhibition [6]: 0.148%
- inhibition [7]: -0.052%
- inhibition [8]: 6.49%
- haemolysis [9]: 1.25%

SMILES: N#Cc1c(Cl)nc2ccccc2c1C(F)(F)F
- inhibition [1]: 31.1%
- inhibition [2]: 3.86%
- inhibition [3]: -47.1%
- inhibition [4]: -1.22%
- inhibition [5]: -10%
- inhibition [6]: 0.0452%
- inhibition [7]: 0.667%
- inhibition [8]: 10% (inactive)
- haemolysis [9]: 0.129%

SMILES: O=C(O)c1cc(-c2ccco2)on1
- inhibition [1]: 19.4%
- inhibition [2]: -3.73%
- inhibition [3]: -23.7%
- inhibition [4]: 3.29%
- inhibition [5]: 1.89%
- inhibition [6]: -0.23%
- inhibition [7]: -0.19%
- inhibition [8]: 20.4% (inactive)
- haemolysis [9]: 0.22%

SMILES: COc1cc2nc(Nc3cc(C)[nH]n3)nc(Nc3cc(C)[nH]n3)c2cc1OC
- inhibition [1]: 19.6%
- inhibition [2]: 18.8%
- inhibition [3]: 84.2%
- inhibition [4]: 49.1%
- inhibition [5]: 12.7%
- inhibition [6]: 0.769%
- inhibition [7]: 1.15%
- inhibition [8]: 37.5%
- haemolysis [9]: 0.208%

SMILES: NC(=O)C1CCN(c2nc(OCc3ccc(F)nc3)nc(N3CCn4c(nnc4C(F)(F)F)C3)n2)CC1
- inhibition [1]: 11.7%
- inhibition [2]: -4.58%
- inhibition [3]: -84%
- inhibition [4]: -3.54%
- inhibition [5]: -2.57%
- inhibition [6]: 0.0526%
- inhibition [7]: 1.56%
- inhibition [8]: 16.7% (inactive)
- haemolysis [9]: 0.123%

SMILES: C=CCSc1nc2c(c(=O)[nH]1)C(c1ccc(N(C)C)cc1)C1=C(CCCC1=O)N2 (stereo not drawn)
- inhibition [1]: 1.16%
- inhibition [2]: 1.79%
- inhibition [3]: 15.9%
- inhibition [4]: -12.3%
- inhibition [5]: -40%
- inhibition [6]: -0.888%
- inhibition [7]: 0.543%
- inhibition [8]: -16.3% (inactive)
- haemolysis [9]: -0.046%

SMILES: O=S(=O)(Nc1ccc(Oc2ccccc2)cc1)c1cccc(C(F)(F)F)c1
- inhibition [1]: 67.9%
- inhibition [2]: 59.2%
- inhibition [3]: 25.3%
- inhibition [4]: 90%
- inhibition [5]: -5.41%
- inhibition [6]: -0.452%
- inhibition [7]: 0.528%
- inhibition [8]: 81.9%
- haemolysis [9]: 1.23%

SMILES: O=C(c1ccccc1)c1ccc(NS(=O)(=O)c2cccc(Cl)c2)cc1
- inhibition [1]: 80.1%
- inhibition [2]: 15.2%
- inhibition [3]: -41.2%
- inhibition [4]: 86.3%
- inhibition [5]: 4.05%
- inhibition [6]: -0.368%
- inhibition [7]: 0.0647%
- inhibition [8]: 64.6%
- haemolysis [9]: 0.625%

SMILES: Nc1ncnc2cc(-c3cccc(S(=O)(=O)NC(=O)C(N)Cc4ccccc4)c3)sc12 (stereo not drawn)
- inhibition [1]: 3.19%
- inhibition [2]: 1.55%
- inhibition [3]: -49.9%
- inhibition [4]: -18.8%
- inhibition [5]: -49.3%
- inhibition [6]: -0.63%
- inhibition [7]: 11.7%
- inhibition [8]: -16.5% (inactive)
- haemolysis [9]: 0.0594%

SMILES: O=S(=O)(NC1(Cc2ccc(Cl)cc2Cl)CCC1)c1ccc(-c2nn[nH]n2)cc1
- inhibition [1]: 65.8%
- inhibition [2]: 22.7%
- inhibition [3]: -103%
- inhibition [4]: 22.2%
- inhibition [5]: 0.135%
- inhibition [6]: -1.11%
- inhibition [7]: 0.393%
- inhibition [8]: 17% (inactive)
- haemolysis [9]: -0.271%

SMILES: Nc1ncnc2cc(-c3cccc(S(=O)(=O)NC(=O)C4CCCN4)c3)sc12 (stereo not drawn)
- inhibition [1]: -10.6%
- inhibition [2]: -13%
- inhibition [3]: -16.7%
- inhibition [4]: -40.7%
- inhibition [5]: -67.2%
- inhibition [6]: -0.89%
- inhibition [7]: 5.56%
- inhibition [8]: 48.7% (inactive)
- haemolysis [9]: 0.251%

SMILES: N#Cc1c(N2C[C@@H](CC(N)=O)[C@H](O)C2)nc2ccccc2c1C(F)(F)F
- inhibition [1]: 28.3%
- inhibition [2]: -4.88%
- inhibition [3]: -24.4%
- inhibition [4]: 11.6%
- inhibition [5]: 0.811%
- inhibition [6]: -0.687%
- inhibition [7]: 0.858%
- inhibition [8]: 9.67% (inactive)
- haemolysis [9]: 0.173%

SMILES: Cc1ccc(C)c(N2CCN(C(=O)C3CCN(c4ncnc5c4sc4ncccc45)CC3)CC2)c1
- inhibition [1]: 5.07%
- inhibition [2]: -3.57%
- inhibition [3]: 24.6%
- inhibition [4]: 0.988%
- inhibition [5]: 9.19%
- inhibition [6]: -1.18%
- inhibition [7]: 9.54%
- inhibition [8]: 6.17% (inactive)
- haemolysis [9]: 0.267%

SMILES: CC1=CC(=O)C=C(C)C1=NOS(=O)(=O)c1ccc(Cl)cc1
- inhibition [1]: -8.84%
- inhibition [2]: -15.4%
- inhibition [3]: -1.74%
- inhibition [4]: -20.5%
- inhibition [5]: -42.6%
- inhibition [6]: -0.716%
- inhibition [7]: -0.499%
- inhibition [8]: 98.2%
- haemolysis [9]: 0.0834%

SMILES: CC1(C)C2CCC1(C)C(OCC(O)CNC1CCCCC1)C2 (stereo not drawn)
- inhibition [1]: 79.1%
- inhibition [2]: 29.4%
- inhibition [3]: 100%
- inhibition [4]: 100%
- inhibition [5]: 19.9%
- inhibition [6]: -1.25%
- inhibition [7]: -0.797%
- inhibition [8]: 17%
- haemolysis [9]: 0.00104%

SMILES: Cc1ccc(N2CN(CC(=O)Nc3ccccc3Cl)S(=O)(=O)c3cccnc32)cc1
- inhibition [1]: 4.43%
- inhibition [2]: -6.75%
- inhibition [3]: -124%
- inhibition [4]: -25.9%
- inhibition [5]: -45.3%
- inhibition [6]: 0.131%
- inhibition [7]: -1.53%
- inhibition [8]: -17.7% (inactive)
- haemolysis [9]: 0.453%

SMILES: O=c1[nH]c(=O)c2cc(S(=O)(=O)Nc3cc(F)c(NCCN4CCOCC4)c(F)c3)ccc2[nH]1
- inhibition [1]: 12%
- inhibition [2]: -1.9%
- inhibition [3]: -21.1%
- inhibition [4]: 0.988%
- inhibition [5]: -4.32%
- inhibition [6]: -0.977%
- inhibition [7]: -0.106%
- inhibition [8]: 17.7% (inactive)
- haemolysis [9]: -0.0292%

SMILES: C=CC(=O)N1CCCc2c(C(=O)O)cccc21
- inhibition [1]: 18.6%
- inhibition [2]: -1.2%
- inhibition [3]: -51.3%
- inhibition [4]: -5.12%
- inhibition [5]: -5.27%
- inhibition [6]: -0.114%
- inhibition [7]: 0.285%
- inhibition [8]: 17% (inactive)
- haemolysis [9]: 0.129%

SMILES: CC(C)C(N)C(=O)NS(=O)(=O)c1cccc(-c2cc3ncnc(N)c3s2)c1 (stereo not drawn)
- inhibition [1]: -10.9%
- inhibition [2]: -15.1%
- inhibition [3]: -123%
- inhibition [4]: -17.2%
- inhibition [5]: -28.5%
- inhibition [6]: -0.361%
- inhibition [7]: 16.2%
- inhibition [8]: -22.3% (inactive)
- haemolysis [9]: 0.218%

SMILES: CCC(C)NS(=O)(=O)CCCOc1ccc(F)cc1 (stereo not drawn)
- inhibition [1]: 28.8%
- inhibition [2]: -4.88%
- inhibition [3]: -63.1%
- inhibition [4]: -9.51%
- inhibition [5]: 0%
- inhibition [6]: -0.898%
- inhibition [7]: -0.527%
- inhibition [8]: 10.3% (inactive)
- haemolysis [9]: -0.19%
